Reference: patent publication US10383837B2, “Compositions and methods for modulating metabolic pathways” (NuSirt Sciences, Inc., priority 2011, dated 2019)
Marks after values point to notes of the source that are not given here.

Experiments:
myotube = assay: Myotube mitochondrial biogenesis, fluorometric NAO binding, Example 1; format: cell-based; conditions: myotubes
Method: (§1) We next investigated the role of intact leucine (0-0.5 mM) vs. its metabolites, α-ketoisocaproic acid (KIC) (0-0.5 mM) and HMB (0-50 μM). […] Both leucine and HMB increased myotube mitochondrial biogenesis (assessed fluorometrically via NAO binding) by ˜50%, (p<0.005, FIG. 3).

[1] = tested on: PGC-1α, NRF-1, UCP3 genes; assay: Expression of mitochondrial regulatory and component genes; format: cell-based
Sirt3 = biological target: T1, Sirt3 (Mus musculus, UniProt Q8R104); assay: Sirt3 activity in mitochondrial protein of treated 3T3-L1 adipocytes; format: cell-based; conditions: leucine 0.5 mM, HMB 5 μM, resveratrol 200 nM; summary in Example 5
T1 construct: endogenous in cells; host or cells: 3T3-L1 adipocytes (mitochondrial protein)
T1 sequence (Q8R104 1-334): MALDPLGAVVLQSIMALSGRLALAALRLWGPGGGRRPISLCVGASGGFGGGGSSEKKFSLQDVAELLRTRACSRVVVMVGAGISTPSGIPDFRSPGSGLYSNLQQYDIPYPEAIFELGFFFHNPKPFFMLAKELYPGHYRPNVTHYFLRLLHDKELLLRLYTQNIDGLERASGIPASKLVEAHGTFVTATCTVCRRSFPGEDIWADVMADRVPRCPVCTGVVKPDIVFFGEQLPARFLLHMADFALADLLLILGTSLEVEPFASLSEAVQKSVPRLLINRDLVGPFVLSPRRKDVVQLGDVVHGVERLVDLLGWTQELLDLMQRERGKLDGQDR

Adipocytes (3T3-L1) = assay: Fatty acid oxidation by 3H-palmitate in 3T3-L1 adipocytes; format: cell-based; conditions: 4 hours, resveratrol 200 nM, HMB 5 uM, leucine 0.5 mM; for increase in fatty acid oxidation, low glucose: low (5 mM) glucose
Method: High glucose medium reduced fatty acid oxidation by 46% (p<0.05).
Fatty acid oxidation was measured using ^3H-labeled palmitate oxidation, with the ^3H label trapped as water as a result of the fat oxidation. The ^3H was then measured via scintillation counter.

[2] = Body weight, weight gain and visceral adipose volume in diet-induced obese mice; format: in vivo, c57/BL6 mice; conditions: 6 weeks on diet, low resveratrol 12.5 mg/kg diet, low HMB 2 g CaHMB/kg diet, high HMB 10 g CaHMB/kg diet, leucine 2.42% of diet
Source text: (§2) Six week old male c57/BL6 mice were fed a high-fat diet with fat increased to 45% of energy (Research Diets D12451) for 6 weeks to induce obesity.
At the of the treatment period (6 weeks) all animals were humanely euthanized, and blood and tissues collected for further experiments.

[3] = Indices of insulin sensitivity (plasma glucose, insulin, HOMAIR) in diet-induced obese mice; format: in vivo, c57/BL6 mice; conditions: 6 weeks on diet, low resveratrol 12.5 mg/kg diet, low HMB 2 g CaHMB/kg diet, high HMB 10 g CaHMB/kg diet, leucine 2.42% of diet
Source text: Insulin sensitivity can be measured using a variety of techniques, including HOMAIR. HOMAIR, which is the homeostasis model assessment of insulin resistance can be used as a screening index of changes in insulin sensitivity. HOMAIR can be calculated via standard formula from fasting plasma insulin and glucose as follows: HOMAIR=[Insulin (uU/mL)×glucose (mM)]/22.5.
as §2

[4] = tested on: C-reactive protein, IL-6, MCP-1, adiponectin; assay: Circulating inflammatory biomarkers in diet-induced obese mice; format: in vivo, c57/BL6 mice; conditions: 6 weeks on diet, low resveratrol 12.5 mg/kg diet, low HMB 2 g CaHMB/kg diet, high HMB 10 g CaHMB/kg diet, leucine 2.42% of diet
SIRT1 = biological target: T2, SIRT1 (Mus musculus, UniProt Q923E4); assay: Adipose tissue Sirt1 activity in diet-induced obese mice; format: in vivo, c57/BL6 mice; set-up: from tissue; host or cells: adipose tissue of diet-induced obese c57/BL6 mice; conditions: 6 weeks, low dose of resveratrol, HMB, leucine diets
T2 sequence (Q923E4 1-737): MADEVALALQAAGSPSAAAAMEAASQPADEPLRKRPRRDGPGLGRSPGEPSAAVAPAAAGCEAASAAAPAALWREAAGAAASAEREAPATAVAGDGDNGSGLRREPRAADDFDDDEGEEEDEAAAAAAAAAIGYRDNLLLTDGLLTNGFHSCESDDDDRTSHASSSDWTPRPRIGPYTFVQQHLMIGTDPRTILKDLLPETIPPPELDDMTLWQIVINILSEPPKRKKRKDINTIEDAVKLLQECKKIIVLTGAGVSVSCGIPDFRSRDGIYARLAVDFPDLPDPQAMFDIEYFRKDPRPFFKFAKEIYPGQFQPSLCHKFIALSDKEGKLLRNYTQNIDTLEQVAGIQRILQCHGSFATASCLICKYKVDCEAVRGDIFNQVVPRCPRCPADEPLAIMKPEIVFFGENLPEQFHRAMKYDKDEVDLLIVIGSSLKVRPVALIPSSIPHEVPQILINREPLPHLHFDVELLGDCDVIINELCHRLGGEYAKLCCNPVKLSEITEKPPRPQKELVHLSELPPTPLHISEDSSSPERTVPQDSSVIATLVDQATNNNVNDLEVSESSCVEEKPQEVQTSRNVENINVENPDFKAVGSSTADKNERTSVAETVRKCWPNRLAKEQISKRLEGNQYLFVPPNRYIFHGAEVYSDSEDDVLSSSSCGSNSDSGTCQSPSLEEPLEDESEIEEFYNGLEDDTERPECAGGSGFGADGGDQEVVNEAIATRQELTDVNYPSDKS

[5] = tested on: adipocytes (3T3-L1) and myotubes (C2C12); assay: Fatty acid oxidation screening: dose-response curves and synergy, cell type not separately stated; format: cell-based; conditions: for concentration that exerts no effect in dose-response curves (sub-therapeutic dose used in synergy experiments): fatty acid oxidation dose-response
myotubes (C2C12) = assay: Fatty acid oxidation, palmitate-induced O2 consumption (Seahorse XF24), myotubes; format: cell-based; conditions: 24 hours treatment, leucine 0.5 mM, HMB 5 μM, resveratrol 200 nM, partner at its no-effect concentration, % change from control
[6] = Plasma insulin, glucose and HOMAIR in diabetic db/db mice; format: in vivo; conditions: 2 weeks, low dose (150 mg/kg) and very low dose (50 mg/kg) of metformin
[7] = db/db mice, day 7, insulin 0.75 U/kg i.p.; standard metformin dose or blends
[8] = db/db mice, 2 weeks
c2c12 myotubes [9] = assay: Fatty acid oxidation (FAO) in c2c12 myotubes, Example 1; format: cell-based; conditions: in the presence and absence of 20 nM rapamycin
Method: We have shown that catabolic systems are also stimulated to fuel this process, resulting in increased mitochondrial biogenesis and fatty acid oxidation (FAO). To address the mechanism of this effect, we first determined its mTOR-dependence by assessing leucine stimulation of FAO in the presence and absence of 20 nM rapamycin; although rapamycin inhibited FAO in c2c12 myotubes, the degree of leucine stimulation was preserved (˜50%, p<0.03; FIG. 1).
as §1

c2c12 myotubes [10] = assay: Glucose utilization, extracellular acidification response to glucose, myotubes; format: cell-based; conditions: leucine 0.5 mM, HMB 5 μM, resveratrol 200 nM, partner at its no-effect concentration
Method: All compounds were tested for potential to independently or synergistically modulate sirtuin signaling either by direct stimulation or indirect via upstream signaling via AMPK. A key outcome of Sirt1 signaling is stimulation of PGC1-α and subsequent stimulation of mitochondrial biogenesis and fatty acid oxidation. Accordingly, fatty acid oxidation, measured as palmitate-induced oxygen consumption as described below, was utilized as a sensitive first level of screening for aerobic mitochondrial metabolism. A dose-response curve for fatty acid oxidation was established for each compound studied, and a “sub-therapeutic dose” was defined as the highest dose that exerted no effect in this system. […] Following assessment of fatty acid oxidation, Sirt1 activity, AMPK activity, mitochondrial biogenesis and glucose utilization (measured as glucose-induced extracellular acidification in the absence of fatty acids in the media) were assessed for lead combinations and appropriate controls. In the absence of a fatty acid source and oxidative metabolism, glycolysis and subsequent lactate production results in extracellular acidification, which was also measured using a Seahorse Bioscience XF24 analyzer. […] Data for each sample were normalized to the pre-glucose injection baseline for that sample and expressed as % change from that baseline. […]

## CC(C)(O)CC(=O)O [HMB, beta-hydroxymethylbutyrate]
myotube
  increase in myotube mitochondrial biogenesis (NAO binding): ~50%
[1]
  expression of mitochondrial regulatory (PGC-1α and NRF-1) and component (UCP3) genes: stimulated expression
Sirt3
  stimulation of Sirt3: no independent effects
Adipocytes (3T3-L1); high (25 mM) glucose, vs. control
  increase in fatty acid oxidation, high glucose: 29%
Adipocytes (3T3-L1)
  increase in fatty acid oxidation, low glucose: no independent effect
[2]
  Visceral Adipose Volume: 6184 ± 460^a mm^3
  Weight: 40.3 ± 2.1^a g
  Weight gain: 22.5 ± 1.2 g
[3]
  Glucose (plasma): 4.28 ± 0.49^a mM
  Insulin (plasma): 8.3 ± 1.1^a μU/mL
[4]
  Adiponectin: 11.1 ± 1.6^a ng/mL
  C-reactive protein: 98.6 ± 5.1^a ng/mL
  IL-6: 19.9 ± 3.1^a pg/mL
  MCP-1: 116.8 ± 9.3^a pg/mL
SIRT1
  adipose tissue Sirt1 activity: Neither resveratrol nor HMB exerted significant independent effects

## OC[C@@H](O)[C@@H](O[C@H]1O[C@H](CO)[C@@H](O)[C@H](O)[C@H]1O)[C@H](O)[C@@H](O)CO [Maltitol, maltitol]
[5]
  concentration that exerts no effect in dose-response curves (sub-therapeutic dose used in synergy experiments): ≤ 100 nM
[5]; leucine 0.5 mM, HMB 5 μM
  synergy with HMB or leucine in stimulating fatty acid oxidation: no synergy was noted

## Cn1c(=O)c2c(ncn2C)n(C)c1=O [Caffeine, caffeine, reference compound]
Myotubes (C2C12)
  increase in myotube fatty acid oxidation: neither component exerted an independent effect

## O=c1oc2c(O)c(O)cc3c(=O)oc4c(O)c(O)cc1c4c23 [Ellagic acid, ellagic acid]
[5]
  independent activity in dose-response curves / direct stimulation of fatty acid oxidation: little activity, even at high concentrations

## CN(C)C(=N)N=C(N)N [metformin]
[6]
  independent effects on any variable studied: no significant independent effects
[7]
  decrease in blood glucose over the 30 minute linear portion of the insulin tolerance test response curve: ~60 mg/dL
[8]; control 4.5 g
  visceral fat mass: not affected
[8]; high dose metformin 300 mg/kg bw
  effect on body composition: no significant effects

## O=C(O)/C=C/c1ccc(O)c(O)c1 [Caffeic acid, caffeic acid]
[5]
  concentration that exerts no effect in dose-response curves (sub-therapeutic dose used in synergy experiments): ≤ 1000 nM

## CC(C)C[C@H](N)C(=O)O [leucine]
c2c12 myotubes [9]
  degree of leucine stimulation of FAO: ~50%
myotube
  increase in myotube mitochondrial biogenesis (NAO binding): ~50%
[1]
  expression of mitochondrial regulatory (PGC-1α and NRF-1) and component (UCP3) genes: stimulated expression
Sirt3
  stimulation of Sirt3: no independent effects
Adipocytes (3T3-L1)
  increase in fatty acid oxidation, low glucose: no independent effect

## O=C(O[C@@H]1Cc2c(O)cc(O)cc2O[C@@H]1c1cc(O)c(O)c(O)c1)c1cc(O)c(O)c(O)c1 [EGCG, epigallocatechin gallate]
c2c12 myotubes [10]
  increase in glucose utilization, myotubes: no independent effect
[5]
  independent activity in dose-response curves / direct stimulation of fatty acid oxidation: minimally active

## Cn1c(=O)c2[nH]cnc2n(C)c1=O [Theophylline, theophylline, reference compound]
[5]
  concentration that exerts no effect in dose-response curves (sub-therapeutic dose used in synergy experiments): below 1 μM

## fucoxanthin
[5]
  concentration that exerts no effect in dose-response curves (sub-therapeutic dose used in synergy experiments): ≤ 100 nM
